We go through eleven compounds from patent US10259772B2, “Agents for maintaining undifferentiated state and promoting proliferation of stem cells” (NIPPON MENARD COSMETIC CO., LTD., priority 2014, dated 2019).

Assay type in all cases: cell-based
Assay [1] deals with murine embryonic stem cells (murine ES cells). Put plainly: Evaluation of undifferentiated state-maintaining effect on stem cells (Nanog gene expression, real-time PCR). The settings on record: final concentration 0.001%, 3 days of culture, Nanog/Gapdh relative expression at onset of culture defined as 100% undifferentiation, no addition control 25. The source says: Using a medium prepared by adding fetal bovine serum (FBS, 15%, manufactured by Sigma-Aldrich Co. LLC), a nucleoside solution (100 times dilution, manufactured by Sumitomo Dainippon Pharma Co., Ltd.), a non-essential amino acids solution (100 times dilution, manufactured by Sumitomo Dainippon Pharma Co., Ltd.), a β2-mercaptoethanol solution (100 times dilution, manufactured by Sumitomo Dainippon Pharma Co., Ltd.), an L-glutamine solution (100 times dilution, manufactured by Sumitomo Dainippon Pharma Co., Ltd.), penicillin (100 units/mL, manufactured by Sigma-Aldrich Co. LLC), and streptomycin (100 μg/mL, manufactured by Sigma-Aldrich Co. LLC) to Dulbecco's Modified Eagle Medium (manufactured by Gibco), 5×10^5 cells of murine embryonic stem cells (murine ES cells: manufactured by COSMO BIO Co., Ltd.) were seeded in a 6 cm dish coated with gelatin (manufactured by Sigma-Aldrich Co. LLC), one or a mixture of fatty acid glycerides 1 to 9 was added to the medium at a final concentration of 0.001%, and culture was continued for 3 days.
After 3 days of culture, cells were collected and washed twice with PBS(−) and RNA was extracted from the cells with Trizol Reagent (Invitrogen). Extracted RNA was reverse-transcripted to cDNA using 2-STEP real-time PCR kit (Applied Biosystems) and then real-time PCR (95° C.: 15 seconds, 60° C.: 30 seconds, 40 cycles) was performed by AB17300 (Applied Biosystems) using the following primer sets to confirm the gene expression of Nanog (undifferentiation marker: Cell Res. 2007 January; 17 (1): 42-9. Review. Nanog and transcriptional networks in embryonic stem cell pluripotency. Pan G, Thomson J A.). Other operations were conducted according to a determined procedure.
The undifferentiated state-maintaining effect was evaluated as follows: the value of the relative gene expression level of Nanog (Nanog gene expression level/Gapdh gene expression level) calculated as the ratio of the Nanog mRNA expression level to the Gapdh mRNA expression level, which is an internal standard, in murine ES cells at the onset of culture was defined as 100% undifferentiation; and relative thereto, the value of the relative gene expression level of Nanog in the ES cells after 3 days of culture was calculated and evaluated.
A general note: In qPCR the cycle at which signal appears reflects the starting amount.

The test system of assay [2] is human somatic stem cells. Put plainly: Evaluation of proliferation-promoting effect on stem cells (cell count). The following applies: 72 h, final concentration 0.001%, 3 days of culture, number of cells in no addition group (control) defined as 100%, read-out: Percent cell proliferation (%). As for the experimental part: 3×10^5 cells of human somatic stem cells (manufactured by DS Pharma Biomedical Co., Ltd.) cultured using a human stem cell culture medium (manufactured by Toyobo Co., Ltd.) were seeded in a 6 cm dish, one or a mixture (fatty acid glycerides 2+3, fatty acid glycerides 4+5) of fatty acid glycerides 1 to 9 was added at a final concentration of 0.001%, and culture was continued for 3 days. When a mixture of two fatty acid glycerides was used, the ratio thereof was 1:1 (weight ratio).
After 3 days of culture, cells were washed three times with PBS(−), then collected with a rubber policeman, and cells were counted for each culture.
The total number of cells without addition of fatty acid glycerides was defined as control and the control was defined as 100(%). Increase or decrease (%) of the number of cells with addition of fatty acid glycerides was calculated and the stem cell proliferation-promoting effect was evaluated.

The test system of assay [3] is human somatic stem cells. Nature of the assay: In vitro wound healing test (scratch assay). The following applies: final concentration 0.001%, 100 × area of scratch region at 48 hours / area at 0 hours, no addition control 61. As for the experimental part: The scratch assay (JP Publication (Kokai) No. 2013-18756), which is generally conducted as a method for evaluating the efficacy to promote wound healing, was conducted. Specifically, 5×10^5 cells of human somatic stem cells were seeded in a 3.5 cm dish, cultured using human stem cell culture medium to confluency, and then the bottom of the dish was scratched with the end of a sterilized tip to generate a gap in the cell sheet. Subsequently, the medium was changed to a medium supplemented with one or a mixture (fatty acid glycerides 2+3, fatty acid glycerides 4+5) of fatty acid glycerides 1 to 9 at a final concentration of 0.001% and the percent recovery of the cell gap was evaluated 48 hours later. To obtain the same area under a phase contrast microscope when obtaining images before and after the recovery, a mark that can be used as a reference point is provided near the scratch.
The scratch region 48 hours later was calculated as [scratch region 48 hours later]=100× [area of scratch region at 48 hours]/[area of scratch region at 0 hours] using a commercially available image analysis software. These test results are illustrated in Table 4 below.

For the compound `CCCCCC=CCC=CCCCCCCCC(=O)OCC(COC(=O)CCCCCCCC=CCC=CCCCCC)OC(=O)CCCCCCCC=CCC=CCCCCC` (stereo not drawn) [Fatty acid glyceride 9, Trilinolein], the “Nanog expression level (%) after 3 days of culturing” value (“Nanog expression level (%)” for short) in assay [1] is given as 34%. Besides, in the assay with human somatic stem cells [2], the activity at 0.001 % is 117%. In the assay on human somatic stem cells [3], the “Scratch region 48 hours later (%)” value was 53%.

In the case of `CCCCCC=CCC=CCCCCCCCC(=O)OCC(O)COC(=O)CCCCCCCC=CCC=CCCCCC` (stereo not drawn) [Fatty acid glyceride 3, 1,3-Dilinolein], the “Nanog expression level (%)” value in assay [1] was found to be 65%. Also, in the assay with human somatic stem cells [2], the activity at 0.001 % turned out to be 158%. Moreover, the “Scratch region 48 hours later (%)” value in the assay on human somatic stem cells [3] amounted to 32%.

For `CCCCCC=CCC=CCCCCCCCC(=O)OC(CO)COC(=O)CCCCCCCCCCCCCCC` (stereo not drawn) [Fatty acid glyceride 7, 1-Palmitin-2-linolein], in assay [1], the “Nanog expression level (%)” value worked out at 41%. Further, in the assay with human somatic stem cells [2], the activity at 0.001 % was found to be 129%. Moreover, the “Scratch region 48 hours later (%)” value in the assay with human somatic stem cells [3] amounted to 45%.

As to `CCCCCCCCC=CCCCCCCCC(=O)OCC(O)COC(=O)CCCCCCCC=CCCCCCCCC` (stereo not drawn) [Fatty acid glyceride 6, 1,3-Diolein], the “Nanog expression level (%)” value in assay [1] stood at 43%. In the assay with human somatic stem cells [2], the activity at 0.001 % was found to be 130%. The “Scratch region 48 hours later (%)” value in the assay on human somatic stem cells [3] worked out at 44%.

On to `CCCCCC=CCC=CCCCCCCCC(=O)OCC(O)COC(=O)CCCCCCCCCCCCCCCCC` (stereo not drawn) [Fatty acid glyceride 5, 1-Stearin-3-linolein], for which the “Nanog expression level (%)” value in assay [1] was found to be 57%. Also, the activity at 0.001 % in the assay with human somatic stem cells [2] was 145%. Further, in the assay on human somatic stem cells [3], the “Scratch region 48 hours later (%)” value is 40%.

As to `CCCCCCCC/C=C\CCCCCCCC(=O)OCC(COC(=O)CCCCCCC/C=C\CCCCCCCC)OC(=O)CCCCCCC/C=C\CCCCCCCC` [Fatty acid glyceride 8, Triolein], in assay [1], the “Nanog expression level (%)” value was found to be 35%. Also, the activity at 0.001 % in the assay with human somatic stem cells [2] was 118%. For the same compound, in the assay with human somatic stem cells [3], the “Scratch region 48 hours later (%)” value was 52%.

Turning to `CCCCCC=CCC=CCCCCCCCC(=O)OCC(O)COC(=O)CCCCCCCC=CCCCCCCCC` (stereo not drawn) [Fatty acid glyceride 4, 1-Olein-3-linolein], the “Nanog expression level (%)” value in assay [1] stood at 59%. In the assay with human somatic stem cells [2], the activity at 0.001 % came out at 148%. In the assay with human somatic stem cells [3], the “Scratch region 48 hours later (%)” value was found to be 38%.

Take `CCCCCCCCCCCCCCCC(=O)O` [Palmitic acid, reference compound]: in assay [1], the “Nanog expression level (%)” value turned out to be 27%. The activity at 0.001 % in the assay on human somatic stem cells [2] worked out at 102%. Also, the “Scratch region 48 hours later (%)” value with human somatic stem cells [3] is recorded as 60%.

With `CCCCCCCCCCCCCCCC(=O)OCC(COC(=O)CCCCCCCCCCCCCCC)OC(=O)CCCCCCCCCCCCCCC` [Tripalmitin, reference compound], the “Nanog expression level (%)” value in assay [1] is 26%. For the same compound, the activity at 0.001 % in the assay with human somatic stem cells [2] was 103%. The “Scratch region 48 hours later (%)” value with human somatic stem cells [3] amounted to 59%.

For the compound `CCCCCC=CCC=CCCCCCCCC(=O)OCC(O)COC(=O)CCCCCCCCCCCCCCC` (stereo not drawn) [Fatty acid glyceride 2, 1-Palmitin-3-linolein], the “Nanog expression level (%)” value in assay [1] stood at 71%. Moreover, the activity at 0.001 % in the assay on human somatic stem cells [2] worked out at 160%. The “Scratch region 48 hours later (%)” value in the assay with human somatic stem cells [3] is on record as 30%.

As for `CCCCCC=CCC=CCCCCCCCC(=O)OCC(O)CO` (stereo not drawn) [Fatty acid glyceride 1, 1-Monolinolein], the “Nanog expression level (%)” value in assay [1] turned out to be 33%. Further, the activity at 0.001 % with human somatic stem cells [2] turned out to be 115%. Also, in the assay on human somatic stem cells [3], the “Scratch region 48 hours later (%)” value is on record as 54%.
